Where a SMILES comes first, the peptide text is derived from it. [ ]: non-standard residue; d: D form.

The subject of series [1] is gram positive and negative bacteria. The series is described as follows: MIC by micro broth dilution, summary over the strains tested. Format: cell-based. Here is the method: (§1) Minimum inhibition concentrations (MICs) were determined against Escherichia coli (ATCC 25922), Staphylococcus aureus (ATCC 25923), Klebsiella pneumoniae (ATCC 10031) and Pseudomonas aeruginosa (ATCC 27853). Also clinical strains of E. coli, K. pneumoniae, E. cloacae, P. aeruginosa, Serratia marcescens, Proteus mirabilis, S. pneumoniae, Acinetobacter baumannii, A. johnsonii and S. aureus were used for MICs assays. Additionally, clinical strains of yeast including Candida albicans, C. glabrata, C. parapsilosis and C. quillermondiae were used. The susceptibility of these microorganisms to Chain peptides were determined using micro broth dilution assay. Colonies of the respective microorganism from Muller Hinton (MH) agar plates incubated overnight were suspended in MH broth media and final concentration of microorganism was adjusted to 5.0×10^5 cfu/ml. An aliquot of 10 μl of each Chain peptide, or gentamicin, tetracycline as reference antibiotics were added in differing concentrations along with 90 μl of bacterial suspension to 96 well polypropylene plates and incubated at 37° C. for 20 to 24 hours. Concentrations of Chain peptides and reference antibiotics ranged from 0.125 to 128 μg/ml and the MICs were recorded as the lowest concentration with no visual growth of bacteria. Similarly, antifungal MICs were tested in Potato dextrose broth.
For orientation: Dilution methods test growth across graded concentrations, often in twofold steps.

The subject of the next series is human erythrocytes. Format: cell-based. How it is done:
In hemolysis assays, the ability of peptides at 128 μg/ml concentration to lyse human erythrocytes to release hemoglobin was measured. The peptides described here preferably have low hemolytic activity (0.2 to 3.8% hemolysis) in mammal body. […] These peptides are useful as antimicrobial drugs as they show little or no side effects at concentrations needed to kill bacteria.
Minimum inhibition concentrations (MICs) were tested by microbroth dilution method and Chain 104, 105 and 109 inhibited the growth of Escherichia coli (ATCC 25922), Staphylococcus aureus (ATCC 25923), Klebsiella pneumoniae (ATCC 10031) and Pseudomonas aeruginosa (ATCC 27853) between 1-8 μg/ml respectively (Tables 3a, 3b and 3c). The membranolytic activities of the peptides were tested by measuring the release of hemoglobin from erythrocytes of fresh blood donated by voluntiers. Hemoglobin levels were determined spectrometrically by taking OD at 540 nm by following the protocol of Schmidtchen et al., 2011.

The conditions of series [2]: pH 4-9, RDA.
Experimental: (§3) Thermal stability was evaluated by diluting peptides to the concentration of 2 mg/ml in PBS buffer (pH 7.4) and incubating at different temperatures, such as +4° C., 25° C. (RT), 37° C. and 45° C., peptides stored at −20° C. were used as control. […] Peptides were also tested by diluting them at different pH values starting from pH 4 to 9. The effect of NaCl on the antimicrobial activity was tested by adding different concentrations (50, 100 and 200 mM) of NaCl to MH medium and the minimum inhibitory concentrations were tested against 4 ATCC bacterial strains.
The conditions of series [3]: +4, 25, 37 and 45° C., 14 days, PBS pH 7.4, RDA with 20 μg.
Experimental: as §3
A further series concerns S. aureus COL (MRSA). The series can be described thus: Synergistic activity with Ertapenem (4 μg/ml) against MRSA, MIC. Format: cell-based, Staphylococcus aureus. The note with it: S. aureus COL, together with 4 μg/ml Ertapenem (synergistic activity). Here is the method: as §1
(§2) Peptides Chain 104, Chain 105, Chain 201, Chain 308, Chain 310 were tested against antibiotic-sensitive strains of S. aureus RN4220 and methicillin resistant strains of S. aureus COL (MRSA). Chain peptides comprising of either L- or D-form amino acids were tested against these bacteria, and the D-form peptides were found have better activity compared to L-form (Table 6). Synergistic activity of chain peptides along with Ertapenem (4 μg/ml) was tested to know whether it will influence the activity against MRSA strains. […] Chain 310 has the best antibacterial activity against the MRSA strains with a MIC of 0.06 & 0.03 μg/ml along with Ertapenem (4 μg/ml) for both forms of L and D-peptides (Table 6).

The next series concerns S. aureus RN4220. The series is classed as cell-based, Staphylococcus aureus. Conditions: antibiotic sensitive strain S. aureus RN4220. Here is the method:
as §1, §2

For the compound `CC(C)C[C@H](NC(=O)[C@H](Cc1c[nH]c2ccccc12)NC(=O)[C@H](Cc1ccccc1)NC(=O)[C@H](Cc1c[nH]c2ccccc12)NC(=O)[C@H](CCCCN)NC(=O)[C@H](CCCNC(=N)N)NC(=O)[C@@H](N)Cc1c[nH]c2ccccc12)C(=O)N[C@@H](Cc1ccccc1)C(=O)N[C@@H](CCCCN)C(=O)N[C@@H](CCCCN)C(=O)N[C@@H](CCCNC(=N)N)C(=O)O` [Chain309] (H-WRKWFWLFKKR-OH; N-terminus and C-terminus assumed), the “activity against the four ATCC strains” value in series [1] is “very active”.

`CC[C@H](C)[C@H](NC(=O)[C@H](CCSC)NC(=O)[C@H](C)NC(=O)[C@H](CCCNC(=N)N)NC(=O)[C@H](Cc1c[nH]c2ccccc12)NC(=O)[C@H](CCCCN)NC(=O)[C@@H](N)CCCNC(=N)N)C(=O)N[C@@H](CCCNC(=N)N)C(=O)N[C@@H](CC(C)C)C(=O)N[C@@H](Cc1c[nH]cn1)C(=O)N[C@@H](C)C(=O)N[C@@H](CCCCN)C(=O)N[C@@H](CCCNC(=N)N)C(=O)N[C@@H](CC(C)C)C(=O)N[C@@H](CCCNC(=N)N)C(=O)N[C@@H](CCCCN)C(=O)O` [Chain104] (H-RKWRAMIRLHAKRLRK-OH): in the series on human erythrocytes, the “side effects to humans as tested by hemolysis assay” value (“side effects to humans as tested” below) is reported as “little side effects”. Moreover, the “pH stability (zone of inhibition)” value in series [2] was “not hindered by pH”. Further, the “thermostability (antibacterial activity kept after incubation)” value (from here on “thermostability”) in series [3] is “not hindered by pH or temperature even upto 45 °C for over 14 days”.

As to `CC(C)C[C@H](NC(=O)[C@H](CCCCN)NC(=O)[C@H](Cc1c[nH]c2ccccc12)NC(=O)[C@H](CCCCN)NC(=O)[C@H](C)NC(=O)[C@H](Cc1c[nH]cn1)NC(=O)[C@H](CC(C)C)NC(=O)[C@H](CCCNC(=N)N)NC(=O)[C@H](Cc1c[nH]c2ccccc12)NC(=O)[C@@H](N)Cc1c[nH]c2ccccc12)C(=O)N[C@@H](Cc1c[nH]c2ccccc12)C(=O)O` [Chain109] (H-WWRLHAKWKLW-OH), the “side effects to humans as tested” value in the series on human erythrocytes is recorded as “little side effects”.

Take `CC[C@H](C)[C@H](NC(=O)[C@H](CCSC)NC(=O)[C@H](C)NC(=O)[C@H](CCCNC(=N)N)NC(=O)[C@H](Cc1c[nH]c2ccccc12)NC(=O)[C@H](CCCCN)NC(=O)[C@@H](N)CCCNC(=N)N)C(=O)N[C@@H](CCCNC(=N)N)C(=O)N[C@@H](CC(C)C)C(=O)N[C@@H](Cc1c[nH]cn1)C(=O)N[C@@H](C)C(=O)N[C@@H](CCCCN)C(=O)N[C@@H](Cc1c[nH]c2ccccc12)C(=O)N[C@@H](CC(C)C)C(=O)N[C@@H](CCCNC(=N)N)C(=O)N[C@@H](CCCCN)C(=O)O` [Chain105] (H-RKWRAMIRLHAKWLRK-OH): the “side effects to humans as tested” value with human erythrocytes is recorded as “little side effects”. In addition, the “pH stability (zone of inhibition)” value in series [2] is listed as “not hindered by pH”. The “thermostability” value in series [3] is “not hindered by pH or temperature even upto 45 °C for over 14 days”.

`CC[C@H](C)[C@H](NC(=O)[C@H](Cc1c[nH]c2ccccc12)NC(=O)[C@@H](N)CCCCN)C(=O)N[C@H](C(=O)N[C@@H](Cc1c[nH]c2ccccc12)C(=O)N[C@@H](CCCNC(=N)N)C(=O)N[C@@H](Cc1c[nH]c2ccccc12)C(=O)N[C@@H](CCCNC(=N)N)C(=O)N[C@@H](Cc1ccccc1)C(=O)N[C@@H](CCCCN)C(=O)N[C@@H](CCCNC(=N)N)C(=O)O)C(C)C` [Chain201] (H-KWIVWRWRFKR-OH): the “side effects to humans as tested” value in the series with human erythrocytes is “little side effects”. Besides, the “pH stability (zone of inhibition)” value in series [2] is listed as “not hindered by pH”. The “thermostability” value in series [3] was “not hindered by pH or temperature even upto 45 °C for over 14 days”.

As to `CC(C)C[C@H](NC(=O)[C@H](Cc1c[nH]c2ccccc12)NC(=O)[C@H](Cc1ccccc1)NC(=O)[C@H](Cc1c[nH]c2ccccc12)NC(=O)[C@H](CCCCN)NC(=O)[C@H](CC(C)C)NC(=O)[C@@H](N)CCCCN)C(=O)N[C@@H](Cc1ccccc1)C(=O)N[C@@H](CCCCN)C(=O)N[C@@H](CCCCN)C(=O)N[C@@H](CCCNC(=N)N)C(=O)O` [Chain311] (H-KLKWFWLFKKR-OH; N-terminus and C-terminus assumed), in series [1], the “activity against the four ATCC strains” value is on record as “very active”.

Turning to `CC[C@H](C)[C@H](NC(=O)[C@H](CC(C)C)NC(=O)[C@H](CCCNC(=N)N)NC(=O)[C@@H](N)CCCNC(=N)N)C(=O)N[C@@H](Cc1c[nH]c2ccccc12)C(=O)N[C@@H](CCCNC(=N)N)C(=O)N[C@@H](CCCNC(=N)N)C(=O)N[C@@H](Cc1ccccc1)C(=O)N[C@@H](CCCCN)C(=O)N[C@@H](Cc1c[nH]c2ccccc12)C(=O)N[C@@H](CC(C)C)C(=O)N[C@@H](CCCNC(=N)N)C(=O)O` [Chain204] (H-RRLIWRRFKWLR-OH), the “side effects to humans as tested” value in the series on human erythrocytes is recorded as “little side effects”. Further, the “pH stability (zone of inhibition)” value in series [2] is “not hindered by pH”. Also, the “thermostability” value in series [3] is “not hindered by pH or temperature even upto 45 °C for over 14 days”.

As for `CC[C@H](C)[C@H](N)C(=O)N[C@@H](Cc1c[nH]c2ccccc12)C(=O)N[C@@H](CCCCN)C(=O)N[C@@H](CCCNC(=N)N)C(=O)N[C@@H](Cc1ccccc1)C(=O)N[C@@H](CCCNC(=N)N)C(=O)N[C@@H](CC(C)C)C(=O)N[C@@H](Cc1ccccc1)C(=O)N[C@@H](CCCCN)C(=O)N[C@@H](CCCCN)C(=O)N[C@@H](Cc1c[nH]c2ccccc12)C(=O)O` [Chain304] (H-IWKRFRLFKKW-OH; N-terminus and C-terminus assumed), in series [1], the “activity against the four ATCC strains” value is “very active”.

As for `CC(C)C[C@H](NC(=O)[C@H](CCCCN)NC(=O)[C@H](CCCCN)NC(=O)[C@H](Cc1ccccc1)NC(=O)[C@H](CC(C)C)NC(=O)[C@H](Cc1c[nH]c2ccccc12)NC(=O)[C@H](CCCNC(=N)N)NC(=O)[C@H](Cc1c[nH]c2ccccc12)NC(=O)[C@H](CCCCN)NC(=O)[C@H](CCCNC(=N)N)NC(=O)[C@@H](N)CCCCN)C(=O)O` [Compound 310] (H-KRKWRWLFKKL-OH), the “Minimum inhibitory concentration (MIC), S. aureus COL + 4 μg/ml Ertapenem” value with S. aureus COL (MRSA) turned out to be 0.06 µg/mL. Moreover, the “Minimum inhibitory concentration (MIC), S. aureus RN4220” value with S. aureus RN4220 is greater than 64 µg/mL.

Turning to `CC[C@@H](C)[C@@H](NC(=O)[C@@H](CCSC)NC(=O)[C@@H](C)NC(=O)[C@@H](CCCNC(=N)N)NC(=O)[C@@H](Cc1c[nH]c2ccccc12)NC(=O)[C@@H](CCCCN)NC(=O)[C@H](N)CCCNC(=N)N)C(=O)N[C@H](CCCNC(=N)N)C(=O)N[C@H](CC(C)C)C(=O)N[C@H](Cc1c[nH]cn1)C(=O)N[C@H](C)C(=O)N[C@H](CCCCN)C(=O)N[C@H](Cc1c[nH]c2ccccc12)C(=O)N[C@H](CC(C)C)C(=O)N[C@H](CCCNC(=N)N)C(=O)N[C@H](CCCCN)C(=O)O` [105 D] (H-[dR][dK][dW][dR][dA][dM][dI][dR][dL][dH][dA][dK][dW][dL][dR][dK]-OH), in the series on S. aureus COL (MRSA), the “Minimum inhibitory concentration (MIC), S. aureus COL + 4 μg/ml Ertapenem” value was 2 µg/mL. Also, in the series on S. aureus RN4220, the “Minimum inhibitory concentration (MIC), S. aureus RN4220” value was found to be 16 µg/mL.

Values taken from US11096985B2, “Antimicrobial peptides, their variants and uses” (priority 2015, dated 2021).
